Test results taken from patent publication US10988466B2, “Heterocyclic derivatives useful as SHP2 inhibitors” (Jacobio Pharmaceuticals Co., Ltd., priority 2017, dated 2021).
Where two headings read alike, the source gives them in different places.

How the values were obtained:
MV-4-11 = assay: Cell proliferation assay (MTS/PMS); type: cell-based; conditions: Homo sapiens, MV4-11
SHP2 [1] = target: T1, SHP2 (Homo sapiens, UniProt Q06124); assay: biochemical; conditions: read-out: SHP2 inhibition (%)@0.1 μM
T1 sequence (Q06124 1-593): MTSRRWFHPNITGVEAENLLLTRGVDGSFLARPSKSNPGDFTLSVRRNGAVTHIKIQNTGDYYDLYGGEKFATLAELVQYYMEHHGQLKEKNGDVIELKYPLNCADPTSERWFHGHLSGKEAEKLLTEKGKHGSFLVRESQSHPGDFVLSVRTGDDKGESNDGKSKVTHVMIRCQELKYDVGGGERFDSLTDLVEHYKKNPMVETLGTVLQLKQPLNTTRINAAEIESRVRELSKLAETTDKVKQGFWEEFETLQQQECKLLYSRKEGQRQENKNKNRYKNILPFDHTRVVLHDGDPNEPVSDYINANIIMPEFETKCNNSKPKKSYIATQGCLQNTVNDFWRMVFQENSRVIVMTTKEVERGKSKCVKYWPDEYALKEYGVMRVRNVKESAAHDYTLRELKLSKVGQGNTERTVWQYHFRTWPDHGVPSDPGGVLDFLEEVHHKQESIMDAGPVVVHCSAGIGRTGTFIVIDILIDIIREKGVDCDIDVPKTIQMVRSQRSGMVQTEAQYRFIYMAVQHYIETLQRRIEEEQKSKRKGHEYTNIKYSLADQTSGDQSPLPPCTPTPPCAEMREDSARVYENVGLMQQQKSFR

SHP2 [2] = target: T1, SHP2; assay: Phosphatase assays (IC50), DiFMUP substrate
[3] = MV-4-11 cell proliferation, MTS/PMS readout at day 8, compounds added 24 hours after plating, read-out: IC50

Row | Structure (SMILES) | IC50 (MV-4-11) [nM] | inhibition at 0.1 µM (SHP2 [1]) [%] | IC50 (SHP2 [2]; SHP2 0.5 nM activated with dPEG8 peptide, DiFMUP 12 μM, 30 min) [nM] | IC50 (SHP2 [2]) [nM] | IC50 (MV-4-11; [3]) [nM]
1 | Nc1nc(N2CCC3(CC2)Cc2ccccc2[C@H]3N)cnc1Sc1ccnc(N)c1Cl [Example 2, (S)-1′-(6-amino-5-((2-amino-3-chloropyridin-4-yl)thio)pyrazin-2-yl)-1,3-dihydrospiro[indene-2,4′-piperidin]-1-amine] | 2.7 | 75 | 4 |  | 
2 | COc1ccc2c(c1)[C@@H](N)C1(CCN(c3cnc(Sc4ccnc(N)c4Cl)c(N)n3)CC1)C2 [Example 5, (S)-1′-(6-amino-5-((2-amino-3-chloropyridin-4-yl)thio)pyrazin-2-yl)-6-methoxy-1,3-dihydro spiro[indene-2,4′-piperidin]-1-amine] | 4.8 | 84 |  | 6 | 
3 | Nc1nc(N2CCC3(CC2)Cc2ncccc2[C@H]3N)cnc1Sc1ccnc(N)c1Cl [Example 10, (S)-1′-(6-amino-5-((2-amino-3-chloropyridin-4-yl)thio)pyrazin-2-yl)-5,7-dihydrospiro [cyclopenta[b]pyridine-6,4′-piperidin]-5-amine] |  |  |  | 7 | 4
4 | Nc1nc(N2CCC3(CC2)Cc2nc(Cl)ccc2[C@H]3N)cnc1Sc1ccnc(N)c1Cl [Example 19, (S)-1′-(6-amino-5-((2-amino-3-chloropyridin-4-yl)thio)pyrazin-2-yl)-2-chloro-5,7-dihydrospiro[cyclopenta [b]pyridine-6,4′-piperidin]-5-amine] |  | 86 |  | 7 | 
5 | Nc1nc(N2CCC3(CC2)Cc2sc(Cl)nc2[C@H]3N)cnc1Sc1ccnc(N)c1Cl [Example 44, (S)-1′-(6-amino-5-((2-amino-3-chloropyridin-4-yl)thio)pyrazin-2-yl)-2-chloro-4,6-dihydro-spiro[cyclopenta[d]thiazole-5,4′-piperidin]-4-amine] |  | 88 |  | 4 | 7.4
6 | Nc1nc(N2CCC3(CC2)CC2CC2[C@H]3N)cnc1Sc1ccnc(N)c1Cl (stereo partly drawn) [Example 81, (2R)-1′-(6-amino-5-((2-amino-3-chloropyridin-4-yl)thio)pyrazin-2-yl)spiro [bicyclo[3.1.0]hexane-3,4′-piperidin]-2-amine] |  | 75 |  | 8 | 
7 | N=C1c2cscc2CC12CCN(c1cnc(Sc3ccnc(N)c3Cl)c(N)n1)CC2 [Example 146, 3-((2-amino-3-chloropyridin-4-yl)thio)-6-(4-imino-4H,6H-spiro [cyclopenta[c]thiophene-5,4′-piperidin]-1′-yl)pyrazin-2-amine] |  | 82 |  | 12 | 
